Laboratory results reported in BindingDB's records for doi:10.1021/jm100498u (Massachusetts General Hospital, 2010).

Biological target: T1, Gamma-aminobutyric acid receptor subunit alpha-1/beta-2/gamma-2 (Homo sapiens, UniProt P14867+P18507+P47870)
T1 sequence (P14867 whole entry): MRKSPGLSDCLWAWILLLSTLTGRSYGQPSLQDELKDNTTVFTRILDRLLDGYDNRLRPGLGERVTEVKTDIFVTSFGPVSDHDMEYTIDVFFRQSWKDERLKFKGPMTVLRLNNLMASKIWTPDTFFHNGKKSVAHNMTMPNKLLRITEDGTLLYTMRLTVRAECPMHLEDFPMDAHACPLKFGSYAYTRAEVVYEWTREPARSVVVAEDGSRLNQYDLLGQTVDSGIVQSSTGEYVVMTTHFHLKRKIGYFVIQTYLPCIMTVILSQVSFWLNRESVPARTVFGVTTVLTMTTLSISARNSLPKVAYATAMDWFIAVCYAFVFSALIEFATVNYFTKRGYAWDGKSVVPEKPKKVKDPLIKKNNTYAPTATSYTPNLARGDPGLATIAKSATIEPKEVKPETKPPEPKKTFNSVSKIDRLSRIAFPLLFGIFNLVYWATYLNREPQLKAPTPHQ
T1 sequence (P18507 whole entry): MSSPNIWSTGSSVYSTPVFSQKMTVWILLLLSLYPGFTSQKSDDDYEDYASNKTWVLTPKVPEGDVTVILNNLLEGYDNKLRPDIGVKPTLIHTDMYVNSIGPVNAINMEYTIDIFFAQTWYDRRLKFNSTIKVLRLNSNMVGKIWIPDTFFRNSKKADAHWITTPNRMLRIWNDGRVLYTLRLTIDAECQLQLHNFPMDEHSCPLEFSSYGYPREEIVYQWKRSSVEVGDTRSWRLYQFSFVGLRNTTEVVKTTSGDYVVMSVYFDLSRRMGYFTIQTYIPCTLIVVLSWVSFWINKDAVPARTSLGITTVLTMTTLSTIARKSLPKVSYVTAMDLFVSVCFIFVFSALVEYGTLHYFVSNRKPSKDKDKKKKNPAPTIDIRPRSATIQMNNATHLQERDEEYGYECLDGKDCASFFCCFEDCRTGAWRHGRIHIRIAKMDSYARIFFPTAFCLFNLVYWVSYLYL
T1 sequence (P47870 whole entry): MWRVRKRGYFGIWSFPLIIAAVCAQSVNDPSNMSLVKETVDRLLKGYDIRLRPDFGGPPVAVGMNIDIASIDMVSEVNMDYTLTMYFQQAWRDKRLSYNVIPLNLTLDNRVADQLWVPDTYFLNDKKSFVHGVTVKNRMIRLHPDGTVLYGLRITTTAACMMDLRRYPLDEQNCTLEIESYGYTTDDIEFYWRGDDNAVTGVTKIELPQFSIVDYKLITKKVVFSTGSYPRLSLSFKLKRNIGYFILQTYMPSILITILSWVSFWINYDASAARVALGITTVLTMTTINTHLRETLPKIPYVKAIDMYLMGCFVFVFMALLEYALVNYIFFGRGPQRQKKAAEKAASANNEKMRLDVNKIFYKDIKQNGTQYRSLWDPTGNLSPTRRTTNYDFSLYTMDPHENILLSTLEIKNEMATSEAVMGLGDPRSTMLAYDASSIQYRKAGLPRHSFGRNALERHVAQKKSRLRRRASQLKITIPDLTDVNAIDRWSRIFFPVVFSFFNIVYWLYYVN
Assay: Agonist activity at human GABA-A alpha-1-beta-2-gamma-2 receptor expressed in Xenopus laevis

SMILES	EC50 [µM]
CCOC(=O)c1cncn1[C@@H](C)c1ccc(C2(C(F)(F)F)N=N2)cc1	6.4
CCOC(=O)c1cncn1[C@H](C)c1ccc(C2(C(F)(F)F)N=N2)cc1	30
